Measurements from US20200392562A1, “[…] REACTION C[…]” (priority 2017, published 2020).
Entries after “also recorded” stand apart in the source; their conditions may differ. Where a name gives a salt, the structure may show the parent alone. Read-outs that look alike come from different tables or passages of the source.

Experiments:
[1] = tested on: Platinum SuperFi DNA polymerase; format: biochemical; conditions: for yield of PCR product: up to 20 μl of Agencourt XP magnetic beads in 50 μl PCR reaction, amine instead of 110 mM KCl
Method: PCR yield and tolerance for magnetic beads in PCR master mix with different amines compared to the control master mix (with KCl) was evaluated by amplification of a 1 kb fragment from 42 ng of human genomic DNA template. PCR was performed in 50 μl PCR reactions in the presence of increasing amounts of magnetic beads.
The PCR master mix (1×) concentration of KCl (110 mM) was substituted for solution comprising an amine.
Agencourt XP magnetic beads were used in the experiment. From 5 to 35 μl of magnetic beads were washed 2 times with 80% EtOH and dried (an imitation of a protocol for purifying nucleic acids). Dried magnetic beads were resuspended in 50 μl of PCR reaction (complete with PCR master mix, DNA matrix, and primers). The forward primer was SEQ ID No: 3, and the reverse primer was SEQ ID No: 4.
(§1) Products were detected by electrophoresis in a 1% TAE gels followed by staining with ethidium bromide.

[2] = tested on: mutant Taq DNA polymerase
[3] = tested on: Platinum SuperFi DNA polymerase
Method: Yield and tolerance for urea in PCR master mix with different amines compared to the control master mix (with KCl) was evaluated by amplification of a 1 kb fragment from 42 ng of human genomic DNA template in 50 μl PCR reactions.
PCR master mix (1×) composition was 0.16 u/μL Platinum SuperFi DNA polymerase in 1× SuperFi buffer. In some experiments, 110 mM of KCl was substituted for solution comprising amines. […]
The PCR program used for the experiment is described in Table 4.
as §1

Taq DNA polymerase = Taq DNA polymerase (Thermus aquaticus, UniProt P19821); format: biochemical
Source text: A forward primer (SEQ ID No: 1) and a reverse primer (SEQ ID No: 2) were used with the PCR program described in Table 3. PCR products were detected by agarose gel electrophoresis followed by ethidium bromide staining

[4] = PCR buffers containing amine, PCR buffer 1: 0.04%
[5] = sodium citrate 0-0.08%, PCR buffers with 10, 40 or 50 mM amine
[6] = urea 0-230 mM, PCR buffers with 10, 40 or 50 mM amine

Sequence of Taq DNA polymerase (P19821 whole entry): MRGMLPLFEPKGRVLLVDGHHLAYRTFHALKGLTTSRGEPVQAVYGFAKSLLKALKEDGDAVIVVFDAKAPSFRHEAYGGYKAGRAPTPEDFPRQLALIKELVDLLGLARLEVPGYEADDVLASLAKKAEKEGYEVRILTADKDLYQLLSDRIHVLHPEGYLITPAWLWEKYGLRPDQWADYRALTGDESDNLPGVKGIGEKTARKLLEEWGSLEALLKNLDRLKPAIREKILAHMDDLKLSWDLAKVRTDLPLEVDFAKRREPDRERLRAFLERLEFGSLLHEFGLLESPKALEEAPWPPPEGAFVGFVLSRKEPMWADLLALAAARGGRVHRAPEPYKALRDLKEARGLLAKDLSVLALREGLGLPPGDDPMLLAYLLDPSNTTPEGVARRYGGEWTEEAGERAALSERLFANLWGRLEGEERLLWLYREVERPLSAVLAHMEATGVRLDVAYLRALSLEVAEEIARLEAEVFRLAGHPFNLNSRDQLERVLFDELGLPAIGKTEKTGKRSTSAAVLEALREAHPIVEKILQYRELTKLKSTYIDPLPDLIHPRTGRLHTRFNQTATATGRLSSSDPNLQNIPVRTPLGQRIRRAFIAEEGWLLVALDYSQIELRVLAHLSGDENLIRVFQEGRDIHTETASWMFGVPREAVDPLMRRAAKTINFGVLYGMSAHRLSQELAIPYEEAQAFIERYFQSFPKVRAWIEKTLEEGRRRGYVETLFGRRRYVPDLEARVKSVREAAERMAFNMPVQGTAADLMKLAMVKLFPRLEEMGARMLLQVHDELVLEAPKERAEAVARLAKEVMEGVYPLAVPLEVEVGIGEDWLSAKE

Compound	tolerated amount of magnetic beads in the PCR reaction [1]	PCR product yield in the presence of magnetic beads ([1]; reaction buffer with 70, 80 or 90 mM KCl, part or all of the potassium salt replaced with amine, data not shown)	yield of PCR product [1]	PCR product yield [2]	PCR yield [3]	PCR product yield (SuperFi DNA polymerase)	tolerance to urea compared to PCR buffer with KCl [3]	PCR product yield compared to PCR buffer 1 without amines (Taq DNA polymerase)	greater tolerance to sodium citrate compared to PCR buffer 1 (Taq DNA polymerase) [times]	greater tolerance to urea compared with PCR buffer 1 (Taq DNA polymerase) [times]	sodium citrate concentration tolerated (Taq DNA polymerase) [%]	PCR product yield compared with PCR buffer 1 (Taq DNA polymerase; hydrochloride)	sodium citrate concentration tolerated (Taq DNA polymerase; [4]) [%]	PCR product yield compared with PCR buffer 1 (Taq DNA polymerase; [5])	greater tolerance to sodium citrate compared to PCR buffer 1 (Taq DNA polymerase; sodium citrate, PCR buffer 1: 0.04%) [times]	PCR product yield compared with PCR buffer 1 (Taq DNA polymerase; [6])	greater tolerance to urea compared with PCR buffer 1 (Taq DNA polymerase; urea, PCR buffer 1: 37 mM) [times]	tolerance to sodium citrate compared with PCR buffer 1 (Taq DNA polymerase; sodium citrate 0-0.08%, PCR buffers containing amine)	resistance to urea compared with PCR buffer 1 (Taq DNA polymerase; urea 0-230 mM, PCR buffers containing amine)
CNC [dimethylamine hydrochloride]	increased the tolerated amount	increased	Increased yield	increased	much higher	increased													
CCNCC.Cl [diethylamine hydrochloride]			Increased yield		much higher		Increased tolerance	higher	1.25	2.5	0.05	increased; also recorded: Higher							
CC(C)NC(C)C.Cl [diisopropylamine hydrochloride]								higher					0.05	Higher	1.25	increased	2.5		
CN(C)C [trimethylamine hydrochloride]			Increased yield					higher					0.04	Higher		increased		same tolerance	same resistance
